Results from ChEMBL document CHEMBL4311992, “Discovery of 3-(((9H-purin-6-yl)amino)methyl)-4,6-dimethylpyridin-2(1H)-one derivatives as novel tubulin polymerization inhibitors for treatment of cancer” (Eur J Med Chem, 2019).
The source made the active and inactive calls. The rule behind the calls is not given here.

Legend:
[1] = molecular target: Tubulin (Sus scrofa) (UniProt P02554+P02550); experiment: Inhibition of porcine brain tubulin polymerization at 0.05 to 30 uM by fluorescence assay
[2] = species: Mus musculus; experiment: Inhibition of recombinant full-length mouse PI3K p110alpha/p85alpha H1047R mutant assessed as residual activity at 10 uM using phosphatidylinositol-4, 5-bisphosphate as substrate measured after 40 mins by HTRF assay
[3] = species: Mus musculus; experiment: Inhibition of recombinant full-length mouse PI3K p110alpha/p85alpha assessed as residual activity at 10 uM using phosphatidylinositol-4, 5-bisphosphate as substrate measured after 40 mins by HTRF assay
[4] = tested on: HCT-116; experiment: Antitumor activity against human HCT116 cells xenografted in nude BALB/c mouse assessed as tumor growth inhibition at 80 mg/kg, po administered once daily for 4 weeks measured post-last dose relative to control; format: functional; settings: HCT-116, po, 672 h, read-out: TGI
[5] = species: Homo sapiens; experiment: Inhibition of recombinant human Flt4 V1128L/H1146R mutant (800 to end residues) assessed as residual activity at 10 uM using GGEEEEYFELVKKKK as substrate measured after 40 mins in presence of [gamma33P]ATP by scintillation counting method
[6] = tested on: SW-620; experiment: Induction of apoptosis in human SW620 cells assessed as early apoptotic cells at 50 nM measured after 48 hrs by Annexin V-FITC/propidium iodide staining-based flow cytometry (reference value: 0.773%); format: functional
[7] = molecular target: Dual specificity protein kinase CLK2 (Homo sapiens) (UniProt P49760); experiment: Inhibition of recombinant human CLK2 (138 to end residues) assessed as residual activity at 10 uM using YRRAAVPPSPSLSRHSSPHQS(p)EDEEE as substrate measured after 40 mins in presence of [gamma33P]ATP by scintillation counting method
Dual specificity protein kinase CLK2 (Homo sapiens), sequence (P49760 whole entry, looked up): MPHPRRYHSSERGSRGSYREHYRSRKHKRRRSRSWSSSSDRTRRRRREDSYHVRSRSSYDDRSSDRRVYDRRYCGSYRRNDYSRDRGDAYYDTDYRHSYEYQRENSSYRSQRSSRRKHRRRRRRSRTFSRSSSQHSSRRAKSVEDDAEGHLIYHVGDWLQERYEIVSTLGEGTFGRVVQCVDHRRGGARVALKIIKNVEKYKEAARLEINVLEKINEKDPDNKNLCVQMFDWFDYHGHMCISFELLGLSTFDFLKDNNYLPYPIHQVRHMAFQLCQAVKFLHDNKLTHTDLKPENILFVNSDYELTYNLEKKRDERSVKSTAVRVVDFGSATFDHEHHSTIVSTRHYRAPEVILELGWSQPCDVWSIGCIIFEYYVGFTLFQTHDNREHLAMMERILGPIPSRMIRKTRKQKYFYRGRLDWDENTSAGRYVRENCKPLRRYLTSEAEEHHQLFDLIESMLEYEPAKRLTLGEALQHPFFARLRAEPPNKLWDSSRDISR

[8] = molecular target: Mitogen-activated protein kinase 1 (Mus musculus) (UniProt P63085); experiment: Inhibition of mouse MAPK2 assessed as residual activity at 10 uM
[9] = molecular target: Insulin receptor (Homo sapiens) (UniProt P06213); experiment: Inhibition of recombinant human IR (1005 to 1310 residues) assessed as residual activity at 10 uM using KKSRGDYMTMQIG as substrate measured after 40 mins in presence of [gamma33P]ATP by scintillation counting method
[10] = tested on: Tyrosine-protein kinase Blk (Homo sapiens), P51451 [UNDEFINED MUTATION]; experiment: Inhibition of full-length recombinant human BLK M287V mutant assessed as residual activity at 10 uM using poly(Glu, Tyr) 4:1 as substrate measured after 40 mins in presence of [gamma33P]ATP by scintillation counting method
[11] = molecular target: Tubulin (Homo sapiens) (UniProt P68371+Q9H4B7+P0DPH7+P68366+Q13509+Q71U36+P04350+Q3ZCM7+P07437+P68363+Q9BQE3+Q6PEY2+Q13885+Q9BVA1+Q9BUF5); experiment: Disruption of microtubule network in human HCT116 cells assessed as microtubule condensation at 50 nM incubated for 18 hrs by FITC/DAPI staining-based confocal microscopic analysis; format: cell-based
[12] = tested on: SW-620; experiment: Induction of apoptosis in human SW620 cells assessed as early apoptotic cells at 25 nM measured after 48 hrs by Annexin V-FITC/propidium iodide staining-based flow cytometry (reference value: 0.773%); format: functional
[13] = molecular target: Serine/threonine-protein kinase 32A (Homo sapiens) (UniProt Q8WU08); experiment: Inhibition of recombinant full-length human STK32A assessed as residual activity at 10 uM using casein as substrate measured after 120 mins in presence of [gamma33P]ATP by scintillation counting method
Serine/threonine-protein kinase 32A (Homo sapiens), sequence (Q8WU08 whole entry): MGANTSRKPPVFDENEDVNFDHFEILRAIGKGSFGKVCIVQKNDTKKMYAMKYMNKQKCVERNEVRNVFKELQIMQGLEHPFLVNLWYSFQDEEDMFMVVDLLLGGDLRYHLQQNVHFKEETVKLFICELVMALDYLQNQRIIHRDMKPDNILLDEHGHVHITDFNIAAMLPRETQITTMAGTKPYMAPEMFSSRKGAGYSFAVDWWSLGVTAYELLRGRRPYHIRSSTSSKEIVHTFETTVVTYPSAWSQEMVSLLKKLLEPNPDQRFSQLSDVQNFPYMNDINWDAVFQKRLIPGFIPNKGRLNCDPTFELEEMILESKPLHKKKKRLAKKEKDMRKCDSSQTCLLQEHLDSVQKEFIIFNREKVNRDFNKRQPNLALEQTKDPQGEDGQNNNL

[14] = molecular target: Ribosomal protein S6 kinase alpha-6 (Homo sapiens) (UniProt Q9UK32); experiment: Inhibition of recombinant full-length human Rsk4 assessed as residual activity at 10 uM using LRRASLG as substrate measured after 40 mins in presence of [gamma33P]ATP by scintillation counting method
Ribosomal protein S6 kinase alpha-6 (Homo sapiens), sequence (Q9UK32 whole entry): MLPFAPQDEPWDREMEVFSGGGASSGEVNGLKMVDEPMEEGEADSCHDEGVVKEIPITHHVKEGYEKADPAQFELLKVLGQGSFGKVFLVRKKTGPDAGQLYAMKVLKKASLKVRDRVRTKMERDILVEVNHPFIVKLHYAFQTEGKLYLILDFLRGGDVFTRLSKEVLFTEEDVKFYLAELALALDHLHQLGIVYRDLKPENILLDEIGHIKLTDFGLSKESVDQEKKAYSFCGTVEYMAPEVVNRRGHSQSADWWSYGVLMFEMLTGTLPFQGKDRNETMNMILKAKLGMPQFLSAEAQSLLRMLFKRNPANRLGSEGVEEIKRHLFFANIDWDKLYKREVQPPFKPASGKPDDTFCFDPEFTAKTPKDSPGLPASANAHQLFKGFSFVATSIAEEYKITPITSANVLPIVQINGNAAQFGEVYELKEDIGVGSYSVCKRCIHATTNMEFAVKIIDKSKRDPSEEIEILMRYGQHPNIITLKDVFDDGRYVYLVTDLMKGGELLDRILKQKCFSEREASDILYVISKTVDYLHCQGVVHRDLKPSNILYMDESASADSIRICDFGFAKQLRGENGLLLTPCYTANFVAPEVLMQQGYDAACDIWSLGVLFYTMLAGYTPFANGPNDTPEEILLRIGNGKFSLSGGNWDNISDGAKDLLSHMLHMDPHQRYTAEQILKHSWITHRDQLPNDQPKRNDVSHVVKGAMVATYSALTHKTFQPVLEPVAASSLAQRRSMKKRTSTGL

[15] = tested on: HCT-116; experiment: cells; settings: Homo sapiens, HCT-116, 72 h
Description: Antiproliferative activity against human HCT116 cells after 72 hrs by MTT assay

[16] = molecular target: Death-associated protein kinase 2 (Homo sapiens) (UniProt Q9UIK4); experiment: Inhibition of recombinant full-length human DAPK2 assessed as residual activity at 10 uM using calmodulin as substrate measured after 40 mins in presence of [gamma33P]ATP by scintillation counting method
[17] = molecular target: Serine/threonine-protein kinase Nek11 (Homo sapiens) (UniProt Q8NG66); experiment: Inhibition of recombinant full-length human NEK11 assessed as residual activity at 10 uM using myelin basic protein as substrate measured after 40 mins in presence of [gamma33P]ATP by scintillation counting method
[18] = molecular target: Serine/threonine-protein kinase 17B (Homo sapiens) (UniProt O94768); experiment: Inhibition of recombinant full-length human DRAK2 assessed as residual activity at 10 uM using KKRPQRRYSNVF as substrate measured after 120 mins in presence of [gamma33P]ATP by scintillation counting method
Serine/threonine-protein kinase 17B (Homo sapiens), sequence (O94768 whole entry, the tested form may be a part): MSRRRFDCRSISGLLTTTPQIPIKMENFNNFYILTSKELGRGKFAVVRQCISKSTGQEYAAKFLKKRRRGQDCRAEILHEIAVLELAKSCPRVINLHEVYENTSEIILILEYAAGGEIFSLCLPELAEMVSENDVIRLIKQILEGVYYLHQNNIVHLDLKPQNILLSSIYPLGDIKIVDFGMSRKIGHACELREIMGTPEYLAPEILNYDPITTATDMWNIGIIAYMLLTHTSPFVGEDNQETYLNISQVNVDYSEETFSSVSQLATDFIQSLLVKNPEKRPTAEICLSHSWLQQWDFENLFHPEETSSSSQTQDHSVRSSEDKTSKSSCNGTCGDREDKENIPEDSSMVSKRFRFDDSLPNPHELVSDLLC

[19] = molecular target: Ephrin type-A receptor 2 (Homo sapiens) (UniProt P29317); experiment: Inhibition of recombinant human EphA2 (596 to 900 residues) assessed as residual activity at 10 uM using poly(Glu, Tyr) 4:1 as substrate measured after 40 mins in presence of [gamma33P]ATP by scintillation counting method
[20] = tested on: SW-620; experiment: Cell cycle arrest in human SW620 cells assessed as up regulation of CyclinB1 expression up to 150 nM after 24 hrs by Western blot analysis; format: functional, cell-based
[21] = tested on: HCT-116; experiment: Induction of apoptosis in human HCT116 cells assessed as late apoptotic cells at 50 nM measured after 48 hrs by Annexin V-FITC/propidium iodide staining-based flow cytometry (reference value: 3.87%); format: functional
[22] = molecular target: Protein kinase C gamma type (Homo sapiens) (UniProt P05129); experiment: Inhibition of recombinant full-length human PKCgamma assessed as residual activity at 10 uM using histone H1 as substrate measured after 40 mins in presence of [gamma33P]ATP by scintillation counting method
[23] = molecular target: Bone morphogenetic protein receptor type-2 (Homo sapiens) (UniProt Q13873); experiment: Inhibition of recombinant human BMPR2 (172 to 734 residues) assessed as residual activity at 10 uM using myelin basic protein as substrate measured after 120 mins in presence of [gamma33P]ATP by scintillation counting method
Bone morphogenetic protein receptor type-2 (Homo sapiens), sequence (Q13873 whole entry, the tested form may be a part): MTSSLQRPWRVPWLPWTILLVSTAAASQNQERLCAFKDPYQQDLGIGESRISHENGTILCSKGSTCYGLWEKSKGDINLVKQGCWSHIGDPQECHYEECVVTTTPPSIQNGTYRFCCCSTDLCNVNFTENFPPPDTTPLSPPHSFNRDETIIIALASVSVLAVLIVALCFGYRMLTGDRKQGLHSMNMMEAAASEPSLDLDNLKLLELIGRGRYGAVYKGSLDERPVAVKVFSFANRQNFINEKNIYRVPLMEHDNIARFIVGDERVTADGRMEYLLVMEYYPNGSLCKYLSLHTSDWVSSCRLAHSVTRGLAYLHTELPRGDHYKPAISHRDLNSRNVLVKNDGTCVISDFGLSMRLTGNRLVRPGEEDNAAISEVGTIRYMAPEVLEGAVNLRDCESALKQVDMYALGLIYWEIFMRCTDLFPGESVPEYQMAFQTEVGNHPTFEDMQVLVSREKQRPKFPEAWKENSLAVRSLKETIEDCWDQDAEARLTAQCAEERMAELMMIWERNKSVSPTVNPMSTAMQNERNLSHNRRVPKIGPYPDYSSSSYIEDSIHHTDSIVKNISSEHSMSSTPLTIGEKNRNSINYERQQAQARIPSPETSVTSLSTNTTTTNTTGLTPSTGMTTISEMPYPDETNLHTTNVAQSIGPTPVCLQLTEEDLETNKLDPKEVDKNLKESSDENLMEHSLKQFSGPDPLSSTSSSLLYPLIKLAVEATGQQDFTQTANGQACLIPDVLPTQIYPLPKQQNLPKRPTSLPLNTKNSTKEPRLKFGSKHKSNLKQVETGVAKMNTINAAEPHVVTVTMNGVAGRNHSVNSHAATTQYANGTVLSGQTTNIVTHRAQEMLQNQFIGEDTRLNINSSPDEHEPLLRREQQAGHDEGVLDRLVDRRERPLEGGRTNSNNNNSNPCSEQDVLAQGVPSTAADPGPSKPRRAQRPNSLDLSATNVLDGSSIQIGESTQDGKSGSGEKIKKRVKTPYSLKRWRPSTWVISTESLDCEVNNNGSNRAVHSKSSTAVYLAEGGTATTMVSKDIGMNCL

[24] = molecular target: CDC7/Cyclin B1 (Homo sapiens) (UniProt P14635+O00311); experiment: Inhibition of recombinant full-length human CDC7/cyclinB1 assessed as residual activity at 10 uM using Histone H1 as substrate measured after 120 mins in presence of [gamma33P]ATP by scintillation counting method; format: protein-complex assay
CDC7/Cyclin B1 (Homo sapiens), sequence (O00311 whole entry, looked up): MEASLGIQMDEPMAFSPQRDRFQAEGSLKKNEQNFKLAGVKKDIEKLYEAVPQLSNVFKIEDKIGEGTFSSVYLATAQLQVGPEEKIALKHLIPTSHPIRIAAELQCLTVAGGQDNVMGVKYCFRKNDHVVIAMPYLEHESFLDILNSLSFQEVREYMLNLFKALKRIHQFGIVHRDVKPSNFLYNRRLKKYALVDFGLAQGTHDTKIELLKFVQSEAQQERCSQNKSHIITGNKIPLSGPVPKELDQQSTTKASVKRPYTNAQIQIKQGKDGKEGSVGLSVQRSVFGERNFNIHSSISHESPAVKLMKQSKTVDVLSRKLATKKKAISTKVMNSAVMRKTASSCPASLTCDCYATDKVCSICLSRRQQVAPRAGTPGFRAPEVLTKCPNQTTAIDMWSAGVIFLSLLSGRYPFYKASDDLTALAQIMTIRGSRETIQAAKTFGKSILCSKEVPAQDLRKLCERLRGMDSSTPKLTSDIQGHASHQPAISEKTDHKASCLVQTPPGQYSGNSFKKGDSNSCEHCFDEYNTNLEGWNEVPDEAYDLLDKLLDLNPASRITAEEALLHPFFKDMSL
CDC7/Cyclin B1 (Homo sapiens), sequence (P14635 whole entry, looked up): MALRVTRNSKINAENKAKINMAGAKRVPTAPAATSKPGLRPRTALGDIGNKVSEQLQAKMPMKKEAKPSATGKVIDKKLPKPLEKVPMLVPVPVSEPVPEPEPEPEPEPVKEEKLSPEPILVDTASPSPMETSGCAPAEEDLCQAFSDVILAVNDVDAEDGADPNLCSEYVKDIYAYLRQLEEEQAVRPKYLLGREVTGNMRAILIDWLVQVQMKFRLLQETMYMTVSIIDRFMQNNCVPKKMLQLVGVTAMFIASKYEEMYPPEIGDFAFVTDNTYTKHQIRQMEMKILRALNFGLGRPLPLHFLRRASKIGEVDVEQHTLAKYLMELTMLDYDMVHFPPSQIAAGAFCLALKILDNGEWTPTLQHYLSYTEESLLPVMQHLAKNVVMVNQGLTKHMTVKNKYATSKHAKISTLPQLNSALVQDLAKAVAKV

[25] = molecular target: Mitogen-activated protein kinase 11 (Homo sapiens) (UniProt Q15759); experiment: Inhibition of recombinant full-length human SAPK2b assessed as residual activity at 10 uM using myelin basic protein as substrate measured after 40 mins in presence of [gamma33P]ATP by scintillation counting method
[26] = molecular target: Tau-tubulin kinase 2 (Homo sapiens) (UniProt Q6IQ55); experiment: Inhibition of human TTBK2 (1 to 331 residues) using Casein as substrate measured after 40 mins in presence of [gamma33P]ATP by scintillation counting method; set-up: scale not given: the % may be the effect or the level left

Structure (SMILES): Cc1cc(C)c(CNc2nc(Cl)nc3c2ncn3C2CCCC2)c(=O)[nH]1
- inhibition [1]: Active
- Activity [2]: 99%
- Activity [3]: 99.5%
- inhibition in vivo at 80 mg/kg [4]: 71.6%
- Activity [5]: 104%
- Activity [6]: 1.01%
- Activity [7]: 132%
- Activity [8]: 97.5%
- Activity [9]: 116%
- Activity [10]: 115%
- Activity [11]: Active
- Activity [12]: 1.22%
- Activity [13]: 100%
- Activity [14]: 98.5%
- IC50 [15]: 0.06 µM
- Activity [16]: 97%
- Activity [17]: 102%
- Activity [18]: 101%
- Activity [19]: 91%
- Activity [20]: Active
- Activity [21]: 46.2%
- Activity [22]: 108%
- Activity [23]: 109%
- Activity [24]: 102%
- Activity [25]: 100%
- Activity [26]: 104%
